The subject of assay [1] is Mus musculus. Put plainly: Anticonvulsant activity in Swiss albino Mus musculus (mouse) assessed as protection against maximal electric shock-induced death at 35 mg/kg administered 30 min prior to maximal electric shock-challenge. The assay is classed as functional, organism-based. More on the design: dose 35 mg/kg.
The test system of assay [2] is Mus musculus. Put plainly: Anticonvulsant activity in Swiss albino Mus musculus (mouse) assessed protection against PTZ-induced clonic convulsion at 35 mg/kg administered 60 min prior to PTZ-challenge measured up to 30 min relative to control. In kind it is functional.
The subject of assay [3] is Mus musculus. Put plainly: Anticonvulsant activity in Swiss albino Mus musculus (mouse) assessed as time of onset of PTZ-induced clonic convulsion at 35 mg/kg administered 60 min prior to PTZ-challenge (reference value: 59.166 +/- 0.04216 Secs). The assay is classed as functional.
Assay [4] deals with Mus musculus. Put plainly: Anticonvulsant activity in Swiss albino Mus musculus (mouse) assessed as latency time of maximal electric shock-induced clonus onset at 35 mg/kg administered 30 min prior to maximal electric shock-challenge (reference value: 3.16 +/- 0.0833 min). The assay is classed as functional.
Assay [5] relates to Mus musculus. Put plainly: Anticonvulsant activity in Swiss albino Mus musculus (mouse) assessed as time duration of maximal electric shock-induced tonic extension at 35 mg/kg administered 30 min prior to maximal electric shock-challenge (reference value: 20.66 +/- 0.8433 secs). In kind it is functional.
The test system of assay [6] is Mus musculus. Put plainly: Anticonvulsant activity against maximal electric shock-induced seizures in Swiss albino Mus musculus (mouse) assessed as time duration of tonic flexions at 35 mg/kg administered 30 min prior to maximal electric shock-challenge (reference value: 0 secs). In kind it is functional.
Assay [7] has as its system Mus musculus. Put plainly: Anticonvulsant activity in Swiss albino Mus musculus (mouse) assessed as protection against maximal electric shock-induced death at 20 mg/kg administered 30 min prior to maximal electric shock-challenge. The assay is classed as functional, organism-based. More on the design: dose 20 mg/kg.
Assay [8] has as its system Mus musculus. Put plainly: Anticonvulsant activity in Swiss albino Mus musculus (mouse) assessed as time duration of maximal electric shock-induced tonic extension at 20 mg/kg administered 30 min prior to maximal electric shock-challenge (reference value: 20.66 +/- 0.8433 secs). The assay is classed as functional.
Assay [9] relates to Mus musculus. Put plainly: Anticonvulsant activity against maximal electric shock-induced seizures in Swiss albino Mus musculus (mouse) assessed as time duration of tonic flexions at 20 mg/kg administered 30 min prior to maximal electric shock-challenge (reference value: 0 secs). The assay is classed as functional.
Assay [10] concerns Mus musculus. Put plainly: Anticonvulsant activity in Swiss albino Mus musculus (mouse) assessed protection against PTZ-induced clonic convulsion at 20 mg/kg administered 60 min prior to PTZ-challenge measured up to 30 min relative to control. The assay is classed as functional.
The subject of assay [11] is Mus musculus. Put plainly: Anticonvulsant activity in Swiss albino Mus musculus (mouse) assessed as latency time of maximal electric shock-induced clonus onset at 20 mg/kg administered 30 min prior to maximal electric shock-challenge (reference value: 3.16 +/- 0.0833 min). In kind it is functional.

Calls of active or inactive are those of the source. The calls are words filed in the database; no cut-off is given here.

In the case of `CCOC(=O)Nc1nc2ccc(CC)cc2s1`, the result in the assay on Mus musculus [1] was Active. Further, in the assay with Mus musculus [2], the Activity turned out to be 83.33%. Besides, the Time in the assay on Mus musculus [3] came out at 83 s; in the assay on Mus musculus [4], 10.415 min; in the assay on Mus musculus [5], 0 s; with Mus musculus [6], 8.12 s.

`CCOC(=O)Nc1nc2ccc(C)cc2s1`: the outcome in the assay with Mus musculus [1] was Active. The Activity in the assay on Mus musculus [2] came to 100%. The figures for the Time with Mus musculus [4], in the assay with Mus musculus [5] and with Mus musculus [6] were 12.55 min, 0 s and 6.24 s, respectively.

As to `O=C(Nc1nc2ccc([N+](=O)[O-])cc2s1)Oc1ccccc1`, the outcome with Mus musculus [1] was Active. For the same molecule, the Activity with Mus musculus [2] was 100%. Moreover, the Time with Mus musculus [4] came to 10.34 min; in the assay with Mus musculus [5], 0 s; in the assay with Mus musculus [6], 6.32 s.

For `COc1ccc2nc(NC(=O)Oc3ccccc3)sc2c1`, the outcome in the assay on Mus musculus [1] was Active. Moreover, the Activity in the assay with Mus musculus [2] is 66.66%. Further, the Time in the assay on Mus musculus [3] is recorded as 80.5 s; with Mus musculus [4], 4.675 min; in the assay with Mus musculus [5] it was 0 s; in the assay with Mus musculus [6], 11.08 s.

As for `CCOC(=O)Nc1nc2ccc(OC)cc2s1`, the outcome in the assay on Mus musculus [1] was Active. For the same molecule, the Activity in the assay on Mus musculus [2] came out at 100%. The Time with Mus musculus [4] turned out to be 9.56 min; in the assay with Mus musculus [5], 0 s; in the assay with Mus musculus [6], 6.4 s.

As for `CCOC(=O)Nc1nc2ccccc2s1`, the result in the assay with Mus musculus [1] was Active. In the assay with Mus musculus [2], this molecule had an Activity of 83.33%. Moreover, the Time in the assay with Mus musculus [3] is on record as 86.66 s; with Mus musculus [4] it was 11.18 min; with Mus musculus [5] it was 0 s; with Mus musculus [6], 7.29 s.

As for `CCOC(=O)Nc1nc2ccc(Cl)cc2s1`, in the assay on Mus musculus [1], the result was Active. Besides, the Activity in the assay on Mus musculus [2] was determined as 66.66%. For the same molecule, the Time turned out to be 71.83 s in the assay on Mus musculus [3], 5.4 min with Mus musculus [4], 0 s with Mus musculus [5] and 9.27 s in the assay with Mus musculus [6].

In the case of `CCOC(=O)Nc1nc2ccc([N+](=O)[O-])cc2s1`, the outcome in the assay with Mus musculus [1] was Active. This molecule showed an Activity in the assay on Mus musculus [2] of 83.33%. The Time in the assay with Mus musculus [3] was determined as 80.5 s; with Mus musculus [4], 8.37 min; with Mus musculus [5], 0 s; with Mus musculus [6], 7.44 s.

For the molecule `CCOC(=O)Nc1nc2c(C)cccc2s1`, in the assay with Mus musculus [1], the outcome was Active. In addition, the Activity with Mus musculus [2] was determined as 83.33%. For the same molecule, the Time was 85.166 s in the assay on Mus musculus [3], 10.36 min in the assay with Mus musculus [4], 0 s in the assay with Mus musculus [5] and 7.33 s with Mus musculus [6].

`O=C(Nc1nc2ccccc2s1)Oc1ccccc1`: in the assay with Mus musculus [1], the result was Active. For the same molecule, the Activity in the assay with Mus musculus [2] came out at 100%. Besides, the Time in the assay with Mus musculus [4] turned out to be 11.47 min; in the assay on Mus musculus [5] it was 0 s; with Mus musculus [6], 9.54 s.

Consider `O=C(Nc1nc2ccc(Cl)cc2s1)Oc1ccccc1`, for which the outcome in the assay on Mus musculus [1] was Active. In the assay with Mus musculus [2], this molecule had an Activity of 66.66%. Also, the Time in the assay on Mus musculus [3] is 70.83 s; in the assay on Mus musculus [4], 11.2 min; in the assay with Mus musculus [5] it was 0 s; in the assay on Mus musculus [6], 8.34 s.

Consider `O=C1NC(=O)C(c2ccccc2)(c2ccccc2)N1` [PHENYTOIN], for which the outcome in the assay on Mus musculus [7] was Active. Moreover, the Time in the assay with Mus musculus [8] is recorded as 0 s; in the assay with Mus musculus [9] it was 5.34 s; in the assay on Mus musculus [11] it was 13.39 min. Besides, in the assay on Mus musculus [10], the Activity amounted to 100%.

Consider `CCc1ccc2nc(NC(=O)Oc3ccccc3)sc2c1`, for which the outcome with Mus musculus [1] was Active. The molecule further showed an Activity with Mus musculus [2] of 83.33%. Moreover, the Time was found to be 86 s in the assay on Mus musculus [3], 7.59 min in the assay with Mus musculus [4], 0 s in the assay on Mus musculus [5] and 5.2916 s with Mus musculus [6].

For `Cc1ccc2nc(NC(=O)Oc3ccccc3)sc2c1`, in the assay with Mus musculus [1], the result was Active. In the assay with Mus musculus [2], the Activity came out at 100%. Moreover, the Time was determined as 13.28 min in the assay with Mus musculus [4], 0 s in the assay on Mus musculus [5] and 6.74 s in the assay on Mus musculus [6].

For the molecule `Cc1cccc2sc(NC(=O)Oc3ccccc3)nc12`, the outcome with Mus musculus [1] was Active. In addition, the Activity in the assay with Mus musculus [2] is listed as 83.33%. Further, the Time came out at 75.166 s with Mus musculus [3], 9.58 min in the assay with Mus musculus [4], 0 s in the assay on Mus musculus [5] and 5.48 s with Mus musculus [6].

For the origin of these results see ChEMBL document CHEMBL3046402, “Synthesis of substituted benzo[d]thiazol-2-ylcarbamates as potential anticonvulsants” (2013).
